Among the data in BindingDB's records for doi:10.1016/j.bmcl.2012.07.086 (Shandong Academy of Sciences, 2012) are IC50 values, retold here.

Each structure is given as a SMILES string. pIC50: −log10 of the molar value.

The test deals with T1, Aminopeptidase N (Sus scrofa, UniProt P15145).
T1 sequence (P15145 whole entry): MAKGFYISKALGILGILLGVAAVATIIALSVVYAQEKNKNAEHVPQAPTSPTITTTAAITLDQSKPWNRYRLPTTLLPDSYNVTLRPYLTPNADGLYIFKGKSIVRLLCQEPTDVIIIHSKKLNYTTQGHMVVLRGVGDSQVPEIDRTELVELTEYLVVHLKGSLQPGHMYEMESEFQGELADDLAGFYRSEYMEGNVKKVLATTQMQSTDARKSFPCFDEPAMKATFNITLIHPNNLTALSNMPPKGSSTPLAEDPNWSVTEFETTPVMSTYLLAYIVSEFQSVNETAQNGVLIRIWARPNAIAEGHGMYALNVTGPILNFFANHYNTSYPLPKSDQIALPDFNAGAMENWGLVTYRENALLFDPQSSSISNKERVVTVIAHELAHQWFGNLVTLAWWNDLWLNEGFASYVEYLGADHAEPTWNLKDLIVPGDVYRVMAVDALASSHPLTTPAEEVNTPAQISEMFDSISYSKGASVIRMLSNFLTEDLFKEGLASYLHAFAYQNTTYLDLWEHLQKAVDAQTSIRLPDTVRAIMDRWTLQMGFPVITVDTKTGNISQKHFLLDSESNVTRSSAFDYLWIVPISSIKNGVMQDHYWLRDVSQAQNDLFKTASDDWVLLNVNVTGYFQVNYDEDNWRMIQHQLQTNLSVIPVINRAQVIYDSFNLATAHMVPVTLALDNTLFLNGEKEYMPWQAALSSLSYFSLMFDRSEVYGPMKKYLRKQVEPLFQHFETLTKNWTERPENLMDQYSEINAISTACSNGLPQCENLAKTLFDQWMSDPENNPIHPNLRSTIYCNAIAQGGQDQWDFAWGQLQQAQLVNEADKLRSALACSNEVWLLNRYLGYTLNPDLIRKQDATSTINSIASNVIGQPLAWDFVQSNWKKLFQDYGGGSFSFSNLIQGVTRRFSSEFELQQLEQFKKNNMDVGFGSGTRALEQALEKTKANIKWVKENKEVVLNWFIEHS
In words: Inhibition of porcine kidney microsome aminopeptidase using L-Leu-p-nitroanilide as substrate after 30 mins.

`Cc1cc(C/N=N/c2ccc([N+](=O)[O-])cc2[N+](=O)[O-])c(C)n1-c1ccc(S(N)(=O)=O)cc1`: the pIC50 was < 3.00. For `O=C1NC(=O)C(N=Nc2cc([N+](=O)[O-])ccc2O)C(=O)N1`, the pIC50 is < 3.00.
